Measurements reported in patent publication EP0386603A2, “Bisphenethanolamine” (F. HOFFMANN-LA ROCHE AG, priority 1989, dated 1990).

Test: Effect on oxygen consumption in fasted rats (metabolic cages)
Assay type: in vivo, Albinoratten
Conditions: placebo-corrected; for Sauerstoffverbrauch 1. bis 3. Stunde: mean of hours 1-3 after dosing; for Sauerstoffverbrauch 1. bis 12. Stunde: mean of hours 1-12 after dosing
Procedure: Wirkung auf den Sauerstoffverbrauch
Gruppen von 6 männlichen Albinoratten im Gewicht von 160-180 g wurden nach 24 Stunden Fasten in Stoffwechselkäfige gesetzt. Die Käfige wurden mit konstant 6 Liter Raumluft/Minute, die bei einem Taupunkt von 11°C äquilibriert wurden belüftet. Von der Abluft wurde nach erneuter Aequilibrierung während Perioden von jeweils 14 Minuten Proben gesammelt und der Sauerstoff- und CO₂-Gehalt analysiert. Nach einer Anpassungszeit von 4 Stunden erhielten die Tiere entweder Placebo (5% Gummi arabicum) oder die Testsubstanz, nämlich BAP (suspendiert in 5% Gummi arabicum) per os oder intraperitoneal. Danach wurden 12 Stunden lang die Bestimmungen durchgeführt. In der nachfolgenden Tabelle ist der gemittelte Sauerstoffverbrauch nach Medikation während der ersten 3 Stunden und der gesamten Versuchsdauer (12 Stunden) als Prozentsatz des Sauerstoffverbrauchs der Anpassungsperiode (100%) angegeben, wobei entsprechende Korrekturen für Aenderungen in der Placebo-Gruppe berücksichtigt wurden, Tabelle

OCCOc1ccc(CCN(C[C@H](O)c2cccc(Cl)c2)C[C@H](O)c2cccc(Cl)c2)cc1 [BAP, 4-[2-[Bis[(R)-β-hydroxy-3-chlorphenäthyl]amino]äthyl]phenoxyäthanol]
Sauerstoffverbrauch 1. bis 3. Stunde (0,3 µM/kg i.p.): 134 % vom Wert der Vorperiode | Sauerstoffverbrauch 1. bis 12. Stunde (0,3 µM/kg i.p.): 108 % vom Wert der Vorperiode | Sauerstoffverbrauch 1. bis 3. Stunde (0,3 µM/kg p.os): 114 % vom Wert der Vorperiode | Sauerstoffverbrauch 1. bis 12. Stunde (0,3 µM/kg p.os): 105 % vom Wert der Vorperiode | Sauerstoffverbrauch 1. bis 3. Stunde (1 µM/kg i.p.): 172 % vom Wert der Vorperiode | Sauerstoffverbrauch 1. bis 12. Stunde (1 µM/kg i.p.): 121 % vom Wert der Vorperiode | Sauerstoffverbrauch 1. bis 3. Stunde (1 µM/kg p.os): 156 % vom Wert der Vorperiode | Sauerstoffverbrauch 1. bis 12. Stunde (1 µM/kg p.os): 122 % vom Wert der Vorperiode | Sauerstoffverbrauch 1. bis 3. Stunde (3 µM/kg i.p.): 174 % vom Wert der Vorperiode | Sauerstoffverbrauch 1. bis 12. Stunde (3 µM/kg i.p.): 134 % vom Wert der Vorperiode | Sauerstoffverbrauch 1. bis 3. Stunde (3 µM/kg p.os): 179 % vom Wert der Vorperiode | Sauerstoffverbrauch 1. bis 12. Stunde (3 µM/kg p.os): 137 % vom Wert der Vorperiode | Sauerstoffverbrauch 1. bis 3. Stunde (10 µM/kg i.p.): 186 % vom Wert der Vorperiode | Sauerstoffverbrauch 1. bis 12. Stunde (10 µM/kg i.p.): 154 % vom Wert der Vorperiode | Sauerstoffverbrauch 1. bis 3. Stunde (10 µM/kg p.os): 191 % vom Wert der Vorperiode | Sauerstoffverbrauch 1. bis 12. Stunde (10 µM/kg p.os): 157 % vom Wert der Vorperiode
